Measured values from patent publication US20260193293A1, “PEPTIDES CAPABLE OF INHIBITING PROTEIN-PROTEIN INTERACTIONS AT GABAB1A SUBUNIT AND USES THEREOF” (UNIVERSITY OF COPENHAGEN, priority 2022, published 2026).
Like-named read-outs stand apart in the source and are kept apart here. Non-standard residues stand in square brackets, D forms with d. Residues, ends and D or L forms follow the SMILES beside them. 2Nal = N[C@@H](Cc1ccc2ccccc2c1)C(=O)O; NMeI = CC[C@H](C)[C@H](NC)C(=O)O; NMeE = CN[C@@H](CCC(=O)O)C(=O)O; NMeD = CN[C@@H](CC(=O)O)C(=O)O; NMeV = CN[C@H](C(=O)O)C(C)C

Target: Sushi domains (SD1/2) protein
Assay: Fluorescence polarization (FP) competition assay with AJAP-1probe, calculated Ki
Assay type: binding
Summary of the method: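 Competition against 25 nM TAMRA-labelled peptide probe binding SD1/2, in PBS pH 7.4 with 1% BSA at rt, read at 530/580 nm. IC50 from sigmoidal dose-response fits, at least triplicate; Ki calculated from IC50 using probe Kd from saturation binding.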

[1] = Table 9, Ala-, D-amino acids and N-methylation scans of PIANPWT, read-out: Ki (nM) mean ± SEM
[2] = Table 11, deep mutational scanning validation variants of AJAP-1WT, read-out: Ki (nM) mean ± SEM
[3] = Table 6, elongation and truncation scan of PIANP binding epitope, read-out: Ki (nM) mean ± SEM
[4] = Table 16, ncAAs incorporated peptides, read-out: Ki (nM) mean ± SEM

CC[C@H](C)[C@H](NC(=O)[C@H](Cc1c[nH]c2ccccc12)NC(=O)[C@H](CC(=O)O)NC(=O)[C@H](CC(=O)O)NC(=O)[C@H](CC(=O)O)NC(=O)[C@H](CCC(=O)O)NC(C)=O)C(=O)N[C@@H](CC(=O)O)C(=O)N[C@@H](Cc1c[nH]c2ccccc12)C(=O)N[C@@H](Cc1ccc(O)cc1)C(=O)N[C@@H](CC(=O)O)C(=O)N[C@@H](CO)C(=O)N[C@@H](CC(=O)O)C(=O)N[C@@H](CC(=O)O)C(=O)N[C@@H](CC(=O)O)C(=O)N[C@@H](CCCNC(=N)N)C(=O)N[C@@H](CCCNC(=N)N)C(=O)N[C@@H](CCCNC(=N)N)C(=O)N[C@@H](CCCNC(=N)N)C(=O)N[C@@H](CCCNC(=N)N)C(=O)N[C@@H](CCCNC(=N)N)C(=O)N[C@@H](CCCNC(=N)N)C(=O)N[C@@H](CCCNC(=N)N)C(N)=O [Peptide 16-R8] (Ac-EDDDWIDWYDSDDDRRRRRRRR-NH2)
Ki (CPP tagged peptides overview, SD1/2 binding affinity, mean ± SEM, n ≥ 3, read-out: Ki): 65 ± 1 nM
Ki (Table 14, CPPs tagged peptides, read-out: Ki (nM) mean ± SEM): 65.3 ± 1 nM

CC(=O)N[C@@H](CCC(=O)O)C(=O)N[C@@H](CC(=O)O)C(=O)N[C@@H](CC(=O)O)C(=O)N[C@@H](CO)C(=O)N[C@@H](CC(=O)O)C(=O)N[C@H](C(=O)N[C@@H](Cc1c[nH]c2ccccc12)C(=O)N[C@@H](Cc1c[nH]c2ccccc12)C(=O)N[C@@H](Cc1c[nH]cn1)C(=O)NCC(=O)N[C@@H](C)C(=O)N[C@@H](CC(=O)O)C(=O)N[C@H](C(=O)N[C@@H](CC(=O)O)C(N)=O)[C@@H](C)O)C(C)C (Ac-EDDSDVWWHGADTD-NH2)
Ki (Table 10, deep mutational scanning validation variants of APPWT, read-out: Ki (nM) mean ± SEM): 270 ± 4 nM

CC[C@H](C)[C@H](NC(=O)[C@H](C)NC(=O)[C@H](Cc1c[nH]c2ccccc12)NC(=O)[C@@H]1CCCN1C(C)=O)C(=O)N(C)[C@H](C(=O)N[C@@H](Cc1c[nH]c2ccccc12)C(=O)NCC(=O)N1CCC[C@H]1C(=O)N[C@H](C(=O)N[C@H](C(=O)N[C@@H](CO)C(=O)N[C@@H](CCCNC(=N)N)C(=O)N[C@@H](CCC(=O)O)C(=O)N[C@@H](CC(=O)O)C(N)=O)C(C)C)[C@@H](C)O)C(C)C [PWAI(N-Me-V)WGPTVSRED] (Ac-PWAI[NMeV]WGPTVSRED-NH2)
Ki [1]: 7000 ± 100 nM

CC[C@H](C)[C@H](NC(=O)[C@H](Cc1ccccc1)NC(=O)[C@H](CCC(=O)O)NC(=O)[C@@H](NC(=O)[C@H](CCC(=O)O)NC(C)=O)[C@@H](C)O)C(=O)N[C@@H](C)C(=O)N[C@@H](Cc1c[nH]c2ccccc12)C(=O)N[C@@H](Cc1ccc(O)cc1)C(=O)N1CCC[C@H]1C(=O)N[C@H](C(=O)NCC(=O)N[C@@H](CC(=O)O)C(=O)N[C@@H](CCC(=O)O)C(=O)N[C@@H](CC(=O)O)C(N)=O)[C@@H](C)O [ETEFIAWYPTGDED] (Ac-ETEFIAWYPTGDED-NH2)
Ki [2]: 199 ± 10 nM
Ki (Table 13, peptides for affinity maturation, read-out: Ki (nM) mean ± SEM): 199 ± 10 nM

CC[C@H](C)[C@H](NC(=O)[C@H](C)NC(=O)[C@H](Cc1c[nH]c2ccccc12)NC(=O)[C@@H]1CCCN1C(=O)[C@H](Cc1ccc(O)cc1)NC(=O)[C@H](CCC(N)=O)NC(=O)[C@H](CO)NC(=O)[C@H](CO)NC(C)=O)C(=O)N[C@H](C(=O)N[C@@H](Cc1c[nH]c2ccccc12)C(=O)NCC(=O)N1CCC[C@H]1C(=O)N[C@H](C(=O)N[C@H](C(=O)N[C@@H](CO)C(=O)N[C@@H](CCCNC(=N)N)C(=O)N[C@@H](CCC(=O)O)C(=O)N[C@@H](CC(=O)O)C(=O)NCC(N)=O)C(C)C)[C@@H](C)O)C(C)C (Ac-SSQYPWAIVWGPTVSREDG-NH2)
Ki [3]: 29900 ± 2000 nM

CC[C@H](C)[C@H](NC(=O)[C@H](Cc1ccccc1)NC(=O)[C@H](CCC(=O)O)NC(=O)[C@@H](NC(=O)[C@H](CCC(=O)O)NC(C)=O)[C@@H](C)O)C(=O)N[C@@H](Cc1c[nH]cn1)C(=O)N[C@@H](Cc1c[nH]c2ccccc12)C(=O)NCC(=O)N1CCC[C@H]1C(=O)N[C@H](C(=O)NCC(=O)N[C@@H](CC(=O)O)C(=O)N[C@@H](CCC(=O)O)C(=O)N[C@@H](CC(=O)O)C(N)=O)[C@@H](C)O [ETEFIHWGPTGDED] (Ac-ETEFIHWGPTGDED-NH2)
Ki [2]: 24 ± 1 nM

CC(=O)N[C@@H](CCC(=O)O)C(=O)N[C@@H](CC(=O)O)C(=O)N[C@@H](CC(=O)O)C(=O)N[C@@H](CO)C(=O)N[C@@H](CC(=O)O)C(=O)N[C@H](C(=O)N[C@@H](Cc1c[nH]c2ccccc12)C(=O)N[C@@H](Cc1c[nH]c2ccccc12)C(=O)NCC(=O)NCC(=O)N[C@@H](C)C(=O)N[C@@H](CC(=O)O)C(=O)N[C@H](C(=O)N(C)[C@@H](CC(=O)O)C(N)=O)[C@@H](C)O)C(C)C (Ac-EDDSDVWWGGADT[NMeD]-NH2)
Ki (Table 7, Ala-, D-amino acids and N-methylation scans of APPWT, read-out: Ki (nM) mean ± SEM): 565 ± 23 nM

CC[C@H](C)[C@H](NC(=O)[C@H](C)NC(=O)[C@H](Cc1c[nH]c2ccccc12)NC(=O)[C@@H]1CCCN1C(C)=O)C(=O)N[C@H](C(=O)N[C@@H](Cc1c[nH]c2ccccc12)C(=O)NCC(=O)N1CCC[C@H]1C(=O)N[C@H](C(=O)N[C@H](C(=O)N[C@@H](CO)C(=O)N[C@@H](CCCNC(=N)N)C(=O)N[C@@H](CCC(=O)O)C(=O)N[C@@H](CC(=O)O)C(=O)NCC(=O)NCC(N)=O)C(C)C)[C@@H](C)O)C(C)C (Ac-PWAIVWGPTVSREDGG-NH2)
Ki [3]: 561 ± 21 nM

CC[C@H](C)[C@H](NC(=O)[C@H](C)NC(=O)[C@H](Cc1c[nH]c2ccccc12)NC(=O)[C@@H]1CCCN1C(C)=O)C(=O)N[C@H](C(=O)N[C@@H](Cc1c[nH]c2ccccc12)C(=O)NCC(=O)N1CCC[C@H]1C(=O)N[C@H](C(=O)N[C@H](C(=O)N[C@@H](CO)C(=O)N[C@@H](CCCNC(=N)N)C(=O)N(C)[C@@H](CCC(=O)O)C(=O)N[C@@H](CC(=O)O)C(N)=O)C(C)C)[C@@H](C)O)C(C)C (Ac-PWAIVWGPTVSR[NMeE]D-NH2)
Ki [1]: 523 ± 13 nM

CC[C@H](C)[C@@H](C(=O)N[C@H](C(=O)N[C@@H](Cc1c[nH]c2ccccc12)C(=O)NCC(=O)N1CCC[C@H]1C(=O)N[C@H](C(=O)N[C@H](C(=O)N[C@@H](CO)C(=O)N[C@@H](CCCNC(=N)N)C(=O)N[C@@H](CCC(=O)O)C(=O)N[C@@H](CC(=O)O)C(N)=O)C(C)C)[C@@H](C)O)C(C)C)N(C)C(=O)[C@H](C)NC(=O)[C@H](Cc1c[nH]c2ccccc12)NC(=O)[C@@H]1CCCN1C(C)=O [PWA(N-Me-I)VWGPTVSRED] (Ac-PWA[NMeI]VWGPTVSRED-NH2)
Ki [1]: 370 ± 5 nM

CC[C@H](C)[C@H](NC(=O)[C@H](Cc1c[nH]c2ccccc12)NC(=O)[C@H](CCC(=O)O)NC(=O)[C@@H](NC(=O)[C@H](CCC(=O)O)NC(C)=O)[C@@H](C)O)C(=O)N[C@@H](C)C(=O)N[C@@H](Cc1c[nH]c2ccccc12)C(=O)NCC(=O)N1CCC[C@H]1C(=O)N[C@H](C(=O)NCC(=O)N[C@@H](CC(=O)O)C(=O)N[C@@H](CCC(=O)O)C(=O)N[C@@H](CC(=O)O)C(N)=O)[C@@H](C)O [ETEWIAWGPTGDED] (Ac-ETEWIAWGPTGDED-NH2)
Ki [2]: 35 ± 2 nM

CC(=O)N[C@@H](CCC(=O)O)C(=O)N[C@@H](CC(=O)O)C(=O)N[C@@H](CC(=O)O)C(=O)N[C@@H](CO)C(=O)N[C@@H](Cc1ccc2ccccc2c1)C(=O)N[C@H](C(=O)N[C@@H](Cc1c[nH]c2ccccc12)C(=O)N[C@@H](Cc1c[nH]c2ccccc12)C(=O)NCC(=O)NCC(=O)N[C@@H](C)C(=O)N[C@@H](CC(=O)O)C(=O)N[C@H](C(=O)N[C@@H](CC(=O)O)C(N)=O)[C@@H](C)O)C(C)C (Ac-EDDS[2Nal]VWWGGADTD-NH2)
Ki (purified peptides, read-out: Ki): 43 nM
fold increased affinity compared to Asp207Trp (relative to Asp207Trp mutant of APPWT): 2 fold

COc1ccc(C[C@H](NC(=O)[C@H](Cc2c[nH]c3ccccc23)NC(=O)[C@H](Cc2c[nH]c3ccccc23)NC(=O)[C@@H](NC(=O)[C@H](CC(=O)O)NC(=O)[C@H](CO)NC(=O)[C@H](CC(=O)O)NC(=O)[C@H](CC(=O)O)NC(=O)[C@H](CCC(=O)O)NC(C)=O)C(C)C)C(=O)NCC(=O)N[C@@H](C)C(=O)N[C@@H](CC(=O)O)C(=O)N[C@H](C(=O)N[C@@H](CC(=O)O)C(N)=O)[C@@H](C)O)cc1 (Ac-EDDSDVWWY(Me)GADTD-NH2)
Ki [4]: 109 ± 4 nM

CC[C@H](C)[C@H](NC(=O)[C@H](C)NC(=O)[C@H](Cc1c[nH]c2ccccc12)NC(C)=O)C(=O)N[C@H](C(=O)N[C@@H](Cc1c[nH]c2ccccc12)C(=O)NCC(=O)N1CCC[C@H]1C(=O)N[C@H](C(=O)N[C@H](C(=O)N[C@@H](CO)C(=O)N[C@@H](CCCNC(=N)N)C(=O)N[C@@H](CCC(=O)O)C(=O)N[C@@H](CC(=O)O)C(=O)NCC(N)=O)C(C)C)[C@@H](C)O)C(C)C (Ac-WAIVWGPTVSREDG-NH2)
Ki [3]: > 62500 nM

CCOc1ccc(C[C@H](NC(=O)[C@H](CC(=O)O)NC(=O)[C@H](CC(=O)O)NC(=O)[C@H](CC(=O)O)NC(=O)[C@H](CCC(=O)O)NC(C)=O)C(=O)N[C@H](C(=O)N[C@@H](CC(=O)O)C(=O)N[C@@H](Cc2c[nH]c3ccccc23)C(=O)N[C@@H](Cc2ccc(O)cc2)C(=O)N[C@@H](CC(=O)O)C(=O)N[C@@H](CO)C(=O)N[C@@H](CC(=O)O)C(=O)N[C@@H](CC(=O)O)C(=O)N[C@@H](CC(=O)O)C(N)=O)[C@@H](C)CC)cc1 [Peptide 32]
Ki (Table 1, affinity maturation, mean ± SEM, n ≥ 3, read-out: Ki): 5.3 ± 0.2 nM
Ki [4]: 5.3 ± 0.2 nM

CC[C@H](C)[C@H](NC(=O)[C@H](C)NC(=O)[C@H](Cc1c[nH]c2ccccc12)NC(=O)[C@H](C)NC(C)=O)C(=O)N[C@H](C(=O)N[C@@H](Cc1c[nH]c2ccccc12)C(=O)NCC(=O)N1CCC[C@H]1C(=O)N[C@H](C(=O)N[C@H](C(=O)N[C@@H](CO)C(=O)N[C@@H](CCCNC(=N)N)C(=O)N[C@@H](CCC(=O)O)C(=O)N[C@@H](CC(=O)O)C(N)=O)C(C)C)[C@@H](C)O)C(C)C [AWAIVWGPTVSRED] (Ac-AWAIVWGPTVSRED-NH2)
Ki [1]: 552 ± 20 nM
